Reference: PubChem BioAssay AID2060491 (Molecular Pharmacology Branch, DTP, NCI, 2025)

Tested on: 857933-349-R-J2-PDC complex spheroids, viability
Assay: Anticancer human tumor 857933-349-R-J2-PDC patient-derived colon adenocarcinoma cell line growth inhibition [GQUAD]
Conditions: for IC50: curve of first compound; for viability, T/C: stronger effect = lower value
Summary of the method: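 Tumor cells were grown as complex spheroids with HUVEC endothelial cells and mesenchymal stem cells as stroma. G-quadruplex stabilizers were combined with targeted agents over half-log dilutions from near the clinical Cmax, or from 10 microM.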

[1] = second compound 0.0316 µM, first compound 0.0316 µM
[2] = second compound 0.0316 µM, first compound 0.1 µM
[3] = second compound 0.0316 µM, first compound 0.316 µM
[4] = second compound 0.0316 µM, first compound 1 µM
[5] = second compound 0.0316 µM, first compound 3.16 µM
[6] = second compound 0.0316 µM, first compound 10 µM
[7] = second compound 0.1 µM, first compound 0.0316 µM
[8] = second compound 0.1 µM, first compound 0.1 µM
[9] = second compound 0.1 µM, first compound 0.316 µM
[10] = second compound 0.1 µM, first compound 1 µM
[11] = second compound 0.1 µM, first compound 3.16 µM
[12] = second compound 0.1 µM, first compound 10 µM
[13] = second compound 0.316 µM, first compound 0.0316 µM
[14] = second compound 0.316 µM, first compound 0.1 µM
[15] = second compound 0.316 µM, first compound 0.316 µM
[16] = second compound 0.316 µM, first compound 1 µM
[17] = second compound 0.316 µM, first compound 3.16 µM
[18] = second compound 0.316 µM, first compound 10 µM
[19] = second compound 1 µM, first compound 0.0316 µM
[20] = second compound 1 µM, first compound 0.1 µM
[21] = second compound 1 µM, first compound 0.316 µM
[22] = second compound 1 µM, first compound 1 µM
[23] = second compound 1 µM, first compound 3.16 µM
[24] = second compound 1 µM, first compound 10 µM
[25] = second compound 3.16 µM, first compound 0.0316 µM
[26] = second compound 3.16 µM, first compound 0.1 µM
[27] = second compound 3.16 µM, first compound 0.316 µM
[28] = second compound 3.16 µM, first compound 1 µM
[29] = second compound 3.16 µM, first compound 3.16 µM
[30] = second compound 3.16 µM, first compound 10 µM
[31] = second compound 10 µM, first compound 0.0316 µM
[32] = second compound 10 µM, first compound 0.1 µM
[33] = second compound 10 µM, first compound 0.316 µM
[34] = second compound 10 µM, first compound 1 µM
[35] = second compound 10 µM, first compound 3.16 µM
[36] = second compound 10 µM, first compound 10 µM
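Note: spheroids exposed to compounds for one week before readout.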
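Throughout, for viability, T/C: percent viability relative to vehicle DMSO wells taken as 100%.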

Compound: CC1COCCN1c1cc(C2(O)CC3CCC(C2)O3)c2cnn(-c3ccn[nH]3)c2n1 (stereo unspecified) + Cc1[nH]c2ccc(F)cc2c1-c1nc2c3cccnc3c3ncccc3c2[nH]1
- IC50 (second compound 0.0316 µM): 289 nM
- IC50 (second compound 0.1 µM): 273 nM
- IC50 (second compound 0.316 µM): 440 nM
- IC50 (second compound 1 µM): 312 nM
- IC50 (second compound 3.16 µM): 699 nM
- IC50 (second compound 10 µM): 267 nM
- viability, T/C [1]: 76.9%
- viability, T/C [2]: 64.5%
- viability, T/C [3]: 49.6%
- viability, T/C [4]: 41.2%
- viability, T/C [5]: 47.2%
- viability, T/C [6]: 42.5%
- viability, T/C [7]: 69.5%
- viability, T/C [8]: 61.1%
- viability, T/C [9]: 44.6%
- viability, T/C [10]: 47.3%
- viability, T/C [11]: 50.3%
- viability, T/C [12]: 51.4%
- viability, T/C [13]: 67.8%
- viability, T/C [14]: 65.5%
- viability, T/C [15]: 52.7%
- viability, T/C [16]: 42.3%
- viability, T/C [17]: 45.8%
- viability, T/C [18]: 42.9%
- viability, T/C [19]: 58.2%
- viability, T/C [20]: 59.8%
- viability, T/C [21]: 46.5%
- viability, T/C [22]: 44.6%
- viability, T/C [23]: 46.4%
- viability, T/C [24]: 47.2%
- viability, T/C [25]: 64.9%
- viability, T/C [26]: 59.6%
- viability, T/C [27]: 52.4%
- viability, T/C [28]: 46.2%
- viability, T/C [29]: 48.4%
- viability, T/C [30]: 45.5%
- viability, T/C [31]: 77.4%
- viability, T/C [32]: 61.2%
- viability, T/C [33]: 49%
- viability, T/C [34]: 42.4%
- viability, T/C [35]: 42%
- viability, T/C [36]: 46.7%

Compound: COc1ccc([C@@H](O)c2cc(-c3ncnc4cc(N5CCOCC5)ccc34)c(F)cc2Cl)nn1 + Cc1cnc(CNC(=O)c2c(=O)c3ccc(N4CCCN(C)CC4)nc3n3c2sc2ccccc23)cn1
- IC50 (second compound 0.0316 µM): 712 nM
- IC50 (second compound 0.1 µM): 179 nM
- IC50 (second compound 0.316 µM): < 31.6 nM
- IC50 (second compound 1 µM): < 31.6 nM
- IC50 (second compound 3.16 µM): < 31.6 nM
- IC50 (second compound 10 µM): < 31.6 nM
- viability, T/C [1]: 95.5%
- viability, T/C [2]: 81.5%
- viability, T/C [3]: 58%
- viability, T/C [4]: 47.1%
- viability, T/C [5]: 43%
- viability, T/C [6]: 38%
- viability, T/C [7]: 59.5%
- viability, T/C [8]: 59.5%
- viability, T/C [9]: 40.9%
- viability, T/C [10]: 25.9%
- viability, T/C [11]: 23.2%
- viability, T/C [12]: 26.5%
- viability, T/C [13]: 26.5%
- viability, T/C [14]: 26.6%
- viability, T/C [15]: 14.2%
- viability, T/C [16]: 3.09%
- viability, T/C [17]: 2.64%
- viability, T/C [18]: 2.37%
- viability, T/C [19]: 4.74%
- viability, T/C [20]: 3.32%
- viability, T/C [21]: 3.45%
- viability, T/C [22]: 2.29%
- viability, T/C [23]: 1.33%
- viability, T/C [24]: 1.08%
- viability, T/C [25]: 2.27%
- viability, T/C [26]: 2.54%
- viability, T/C [27]: 2.01%
- viability, T/C [28]: 1.72%
- viability, T/C [29]: 1.23%
- viability, T/C [30]: 0.95%
- viability, T/C [31]: 1.48%
- viability, T/C [32]: 2.1%
- viability, T/C [33]: 0.71%
- viability, T/C [34]: 1.8%
- viability, T/C [35]: 0.73%
- viability, T/C [36]: 0.29%

Compound: Cn1ncnc1[C@H]1c2n[nH]c(=O)c3cc(F)cc(c23)N[C@@H]1c1ccc(F)cc1 + CN(C)c1ccc(Nc2c3ccc(NC(=O)CCN4CCCC4)cc3nc3cc(NC(=O)CCN4CCCC4)ccc23)cc1
- IC50 (second compound 0.0316 µM): > 316 nM
- IC50 (second compound 0.1 µM): > 316 nM
- IC50 (second compound 0.316 µM): > 316 nM
- IC50 (second compound 1 µM): > 316 nM
- IC50 (second compound 3.16 µM): > 316 nM
- IC50 (second compound 10 µM): > 316 nM
- viability, T/C (second compound 0.0316 µM, first compound 0.000999 µM): 108%
- viability, T/C (second compound 0.0316 µM, first compound 0.00316 µM): 97.2%
- viability, T/C (second compound 0.0316 µM, first compound 0.00999 µM): 99.4%
- viability, T/C [1]: 106%
- viability, T/C (second compound 0.0316 µM, first compound 0.0999 µM): 109%
- viability, T/C [3]: 102%
- viability, T/C (second compound 0.1 µM, first compound 0.000999 µM): 102%
- viability, T/C (second compound 0.1 µM, first compound 0.00316 µM): 99.9%
- viability, T/C (second compound 0.1 µM, first compound 0.00999 µM): 98.6%
- viability, T/C [7]: 105%
- viability, T/C (second compound 0.1 µM, first compound 0.0999 µM): 104%
- viability, T/C [9]: 101%
- viability, T/C (second compound 0.316 µM, first compound 0.000999 µM): 106%
- viability, T/C (second compound 0.316 µM, first compound 0.00316 µM): 100%
- viability, T/C (second compound 0.316 µM, first compound 0.00999 µM): 98.8%
- viability, T/C [13]: 97.7%
- viability, T/C (second compound 0.316 µM, first compound 0.0999 µM): 105%
- viability, T/C [15]: 99.7%
- viability, T/C (second compound 1 µM, first compound 0.000999 µM): 102%
- viability, T/C (second compound 1 µM, first compound 0.00316 µM): 92%
- viability, T/C (second compound 1 µM, first compound 0.00999 µM): 96.4%
- viability, T/C [19]: 96%
- viability, T/C (second compound 1 µM, first compound 0.0999 µM): 101%
- viability, T/C [21]: 94.6%
- viability, T/C (second compound 3.16 µM, first compound 0.000999 µM): 90.1%
- viability, T/C (second compound 3.16 µM, first compound 0.00316 µM): 81.3%
- viability, T/C (second compound 3.16 µM, first compound 0.00999 µM): 84.3%
- viability, T/C [25]: 85.8%
- viability, T/C (second compound 3.16 µM, first compound 0.0999 µM): 90%
- viability, T/C [27]: 86.5%
- viability, T/C (second compound 10 µM, first compound 0.000999 µM): 71.2%
- viability, T/C (second compound 10 µM, first compound 0.00316 µM): 77%
- viability, T/C (second compound 10 µM, first compound 0.00999 µM): 70.8%
- viability, T/C [31]: 77.5%
- viability, T/C (second compound 10 µM, first compound 0.0999 µM): 75.4%
- viability, T/C [33]: 71.7%
